# Results from paper PMC10384936, “Identification and Biological Characterization of the Pyrazolo[3,4-d]pyrimidine Derivative SI388 Active as Src Inhibitor” (Pharmaceuticals, 2023).
# What was measured:
# Abl = target: T1, Abl (Homo sapiens, UniProt P00519); assay: Abl enzymatic assay (ADP-Glo kinase assay); assay type: biochemical; details: for Ki: mean of at least three experiments, 30 μM ATP, read-out: Bcr-Abl Ki
# T1 construct: purchased Merck-Millipore
# Method: (§1) Src, Fyn, and Abl were purchased from Merck-Millipore. Reactions were performed according to the manufacturer’s instructions with minor modifications. All substrates were used at least at twice the concentration of apparent Km. In detail: Src reactions were performed using 500 μM Src-peptide (KVEKIGEGTYGVVYK), 100 μM ATP, and 0.00087% NP-40; Fyn reactions were performed using 360 μM Src-peptide (KVEKIGEGTYGVVYK), 200 μM ATP, and 0.0026% NP-40; Abl reactions were performed using 50 μM abltide (EAIYAAPFAKKK), 30 μM ATP, and 0.00087% NP-40. All reactions were performed using 10–50 ng of enzyme and 10% DMSO in 10 μL of kinase buffer (8 mM MOPS-NaOH pH7.0, 0.2 mM EDTA, 10 mM MgAc) at 30 °C for 10 min.
# (§2) To avoid peptide adsorbing to the plastic surface, protein low-binding tubes were used. ADP-Glo kinase assay (Promega) was then used to detect kinase activity according to the manufacturer’s instructions with minor modifications. In detail, reactions were transferred to white 384 well-plates and stopped by adding 10 µL of ADP-Glo reagent (Promega) for 50 min at room temperature. A total of 20 μL of detection reagent (Promega) was then added for 30 min and the reaction read using a GloMax Discover microplate reader (Promega). Data were plotted using GraphPad Prism 5.0. IC50 values were obtained according to Equation (1):v = V/{1 + (I/IC50)} (1) where v is the measured reaction velocity, V is the apparent maximal velocity in the absence of inhibitor, I is the inhibitor concentration, and IC50 is the 50% inhibitory dose. Compounds tested were assumed to act as fully ATP-competitive inhibitors. Therefore, Ki values were calculated according to Equation (2):Ki = IC50/(1+ […]) (2) where Ki is the affinity of the inhibitor to the enzyme, S is the ATP concentration, and Km is the affinity of ATP calculated according to the Michaelis–Menten equation.
# osteosarcoma = test system: osteosarcoma; set-up: method as in PMID 17929792; details: cited from earlier work
# Src = target: T2, Src (Homo sapiens, UniProt P12931); assay: Src enzymatic assay (ADP-Glo kinase assay); assay type: biochemical; details: for Ki: mean of at least three experiments, 100 μM ATP
# T2 construct: purchased Merck-Millipore
# Method: as §1, §2
# Bcr-Abl = target: Bcr-Abl; set-up: method as in PMID 23746084, PMID 28650650, PMID 25469771, PMID 21443205, PMID 17929792; details: in-house lead compounds, Figure 1; cited from earlier work
# 32D-T315I CML cells = details: mice inoculated with 32D-T315I CML cells; cited from earlier work
# GBM = test system: GBM; set-up: method as in PMID 28650650, PMID 25469771; details: cited from earlier work
# NB = test system: NB; set-up: method as in PMID 28650650, PMID 25469771; details: cited from earlier work
# GBMSC83 cells [1] = assay: Cell death analysis, Annexin V-PI cytofluorimetry after IR, GBMSC83; assay type: cell-based; details: 1 µM pre-treatment 24 h, IR 10 Gy, 48 h after IR, vs control
# Method: GBMSC83 cells were pretreated with 1 µM SI388 or 1 µM DAS, or DMSO as a control, for 24 h and then irradiated (10 Gy). After 48 h from IR, cytofluorimetric analysis of AnnexinV-PI staining was performed.
# 1 × 10^6 cells were analyzed for cell death 48 h from ionizing radiation (10 Gy) upon staining with Annexin V-APC-propidium iodide (PI) kit, according to manufacturer instructions (eBioscience™ Annexin V apoptosis detection kits, ThermoFisher Scientific, Waltham, MA, USA). Unstained samples were used as the control. CytoFLEX S (Beckman Coulter, Milan, Italy) instrument was used to quantify the double staining. Quality control was evaluated using CytoFLEX Daily QC Fluorospheres (Beckman Coulter). CytExpert version 2.2 software (Beckman Coulter) was used to analyze FCS files. Dead cells were graphed as fold change to control conditions.
# [2] = test system: Src phosphorylation on Tyr416 in U251 cells; assay: Immunoblotting of pY416-Src in U251 cells; assay type: cell-based; details: 10 nM and 1 µM, 24 h, vs DMSO
# Method: Dasatinib (Sigma Aldrich, DAS, Merck Millipore, Burlington, MA, USA), SI388 and SI83 were used at different concentration (10 nM, 1 µM or 25 µM) for 24 h upon serum deprivation. DMSO (Sigma Aldrich) was used as the control.
# (§3) Cell extracts were prepared in RIPA (50 mM Tris-HCl pH 8.0, 150 mM NaCl, 1% NP40, 1 mM EGTA, 1 mM EDTA, 0.25% sodium deoxycholate) or IP buffer (50 mM Tris–HCl pH 7.5, 250 mM NaCl, 1% NP-40, 5 mM EDTA, 5 mM EGTA) supplemented with protease and phosphatase inhibitors (Roche Diagnostic, Mannheim, Germany). For immunoblotting, 25–30 µg of protein was separated by sodium dodecyl sulfate (SDS) polyacrylamide gel electrophoresis (PAGE), blotted onto nitrocellulose membrane, and detected with specific antibodies.
# U251 cells [3] = assay: MTS cell viability assay, U251; assay type: cell-based; details: 72 h, 10 nM, 1 µM, 25 µM
# Method: (§4) Next, the ability of SI388 to inhibit cell viability was evaluated using an MTS assay.
# (§5) Cells were plated in 96 multiwells (1000 cells/well) in 100 µL of the complete medium. The following day, after 24 h of starvation, the cells were treated with DMSO, dasatinib or SI388 at different concentrations (10 nM, 1 µM, 25 µM). After 72 h, cells were treated with tetrazolium (Promega) for 1–2 h. The quantity of formazan product is directly proportional to the number of living cells in the culture. The plate is then read with a plate reader measuring the absorbance of 490 nm for the different conditions.
# T98G cells [4] = assay: Clonogenic assay, T98G; assay type: cell-based; details: 10 nM, 1 µM, 25 µM for 24 h, colonies after 15 days
# Method: (§6) To further characterize the ability of SI388 to inhibit tumor growth, we performed clonogenic assays using T98G and U251 cell lines. Cells were starved and treated for 24 h with increasing concentration (10 nM, 1 µM, and 25 µM) of SI388 or DAS. The ability of single cells to proliferate and produce colonies was evaluated after 15 days, both in control conditions (treated with DMSO) and after treatment with different Src inhibitors.
# (§7) For colony formation, control and irradiated (5 Gy) cells were seeded at the concentration of 1000 cells/dish in 6-well culture plates and incubated at 37 °C, 5% CO2 for 10–15 days.
# (§8) Crystal violet solution (10% (v/v) methanol and 0.5% Crystal Violet) was used to fix and stain colonies, upon 20 min incubation. The stained colonies (>50 cells) were counted under a microscope or using Image “Colonyarea” plugin. Data were expressed as the mean and SD of three independent experiments.
# U251 cells [5] = assay: MTS assay after ionizing radiation, U251; assay type: cell-based; details: 1 µM pre-treatment 24 h, IR 10 Gy, 48 h after IR, not statistically significant
# Method: (§9) To this aim, T98G and U251 cells were pre-incubated or not with SI388 for 24 h and then irradiated (10 Gy).
# as §5
# GBMSC83 cells [6] = assay: Neurosphere formation, cell counting and sphere size, GBMSC83; assay type: cell-based; details: 1 µM, 72 h, vs control
# Method: GBMSC83 cells were seeded at the density of 1 × 10^4 cells/well in a 96-well ultralow attachment plate, and the following day they were treated with SI388 1 µM or dasatinib 1 µM. After 72 h from treatment, cells were stained with Hoechst 33,342 (Thermo Fisher Scientific) and images were acquired with Fluorescence microscopy (ZEISS) and processed with Fiji version 2.3. Hoechst positive nuclei were counted by particle detection instrument of ComDet Plugin of Fiji. The bright fields were acquired and processed by Cell Profiler version 2.1.1 to measure spheres’ diameter and reported as the fold change from the control condition.
# [7] = test system: Src phosphorylation on Tyr416 in GBMSC83 cells; assay: Immunoblotting of pY416-Src in GBMSC83 cells; assay type: cell-based; details: 1 µM, 24 h
# Method: as §3
# Fyn = target: T3, Fyn (Homo sapiens, UniProt P06241); assay: Fyn enzymatic assay (ADP-Glo kinase assay); assay type: biochemical
# T3 construct: purchased Merck-Millipore
# Method: as §1, §2
# T98G cells [8] = assay: MTS assay after ionizing radiation, T98G; assay type: cell-based; details: 1 µM pre-treatment 24 h, IR 10 Gy, 48 h after IR, statistically significant
# Method: as §9, §5
# U251 cells [9] = assay: Clonogenic assay, U251; assay type: cell-based; details: 10 nM, 1 µM, 25 µM for 24 h, colonies after 15 days
# Method: as §6, §7, §8
# T98G cells [10] = assay: MTS cell viability assay, T98G; assay type: cell-based; details: 72 h, 10 nM, 1 µM, 25 µM
# Method: as §4, §5
# T2 sequence (P12931 whole entry, species assumed): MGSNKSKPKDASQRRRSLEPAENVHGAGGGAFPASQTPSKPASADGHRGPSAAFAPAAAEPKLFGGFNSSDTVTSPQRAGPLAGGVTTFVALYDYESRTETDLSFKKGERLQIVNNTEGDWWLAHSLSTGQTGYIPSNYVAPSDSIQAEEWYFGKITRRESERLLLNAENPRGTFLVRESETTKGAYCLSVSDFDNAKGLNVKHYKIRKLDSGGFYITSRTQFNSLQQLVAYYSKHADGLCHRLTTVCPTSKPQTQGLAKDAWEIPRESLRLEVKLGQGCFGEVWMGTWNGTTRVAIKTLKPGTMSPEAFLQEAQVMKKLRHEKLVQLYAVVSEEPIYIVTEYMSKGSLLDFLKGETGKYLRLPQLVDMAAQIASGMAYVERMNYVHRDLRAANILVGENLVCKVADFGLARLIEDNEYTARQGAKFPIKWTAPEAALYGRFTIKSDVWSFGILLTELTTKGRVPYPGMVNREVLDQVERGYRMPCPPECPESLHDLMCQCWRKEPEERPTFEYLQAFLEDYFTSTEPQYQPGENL
# T1 sequence (P00519 whole entry, species assumed): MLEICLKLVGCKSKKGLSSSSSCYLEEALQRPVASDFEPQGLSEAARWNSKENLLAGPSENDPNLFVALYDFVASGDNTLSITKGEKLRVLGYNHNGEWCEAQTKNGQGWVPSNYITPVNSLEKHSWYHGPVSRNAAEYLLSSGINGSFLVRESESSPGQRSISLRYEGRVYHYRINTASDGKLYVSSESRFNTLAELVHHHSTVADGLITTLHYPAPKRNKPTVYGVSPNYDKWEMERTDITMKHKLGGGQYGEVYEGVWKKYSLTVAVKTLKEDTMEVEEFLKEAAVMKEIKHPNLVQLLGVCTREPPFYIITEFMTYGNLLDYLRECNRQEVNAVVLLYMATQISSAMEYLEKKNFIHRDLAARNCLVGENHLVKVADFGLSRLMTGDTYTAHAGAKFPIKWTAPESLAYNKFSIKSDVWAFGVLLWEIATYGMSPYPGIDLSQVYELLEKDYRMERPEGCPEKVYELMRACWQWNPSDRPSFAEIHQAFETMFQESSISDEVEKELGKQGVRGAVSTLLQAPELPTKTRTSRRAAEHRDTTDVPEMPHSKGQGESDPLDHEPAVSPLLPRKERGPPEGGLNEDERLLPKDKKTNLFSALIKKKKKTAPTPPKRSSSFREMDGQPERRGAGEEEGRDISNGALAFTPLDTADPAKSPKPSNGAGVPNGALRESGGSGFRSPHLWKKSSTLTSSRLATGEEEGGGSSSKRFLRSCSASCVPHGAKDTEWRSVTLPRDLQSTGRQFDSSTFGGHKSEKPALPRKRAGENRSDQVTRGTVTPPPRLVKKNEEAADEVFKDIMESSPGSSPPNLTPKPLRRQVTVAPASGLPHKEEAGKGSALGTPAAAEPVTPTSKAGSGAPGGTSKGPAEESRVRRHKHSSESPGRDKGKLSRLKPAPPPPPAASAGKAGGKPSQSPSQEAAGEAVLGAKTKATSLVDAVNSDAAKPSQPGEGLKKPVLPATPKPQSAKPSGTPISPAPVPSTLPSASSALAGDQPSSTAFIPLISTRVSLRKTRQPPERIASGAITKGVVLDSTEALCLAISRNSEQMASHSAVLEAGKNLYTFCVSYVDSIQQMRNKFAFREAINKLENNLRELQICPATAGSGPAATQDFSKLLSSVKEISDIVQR
# T3 sequence (P06241 whole entry, species assumed): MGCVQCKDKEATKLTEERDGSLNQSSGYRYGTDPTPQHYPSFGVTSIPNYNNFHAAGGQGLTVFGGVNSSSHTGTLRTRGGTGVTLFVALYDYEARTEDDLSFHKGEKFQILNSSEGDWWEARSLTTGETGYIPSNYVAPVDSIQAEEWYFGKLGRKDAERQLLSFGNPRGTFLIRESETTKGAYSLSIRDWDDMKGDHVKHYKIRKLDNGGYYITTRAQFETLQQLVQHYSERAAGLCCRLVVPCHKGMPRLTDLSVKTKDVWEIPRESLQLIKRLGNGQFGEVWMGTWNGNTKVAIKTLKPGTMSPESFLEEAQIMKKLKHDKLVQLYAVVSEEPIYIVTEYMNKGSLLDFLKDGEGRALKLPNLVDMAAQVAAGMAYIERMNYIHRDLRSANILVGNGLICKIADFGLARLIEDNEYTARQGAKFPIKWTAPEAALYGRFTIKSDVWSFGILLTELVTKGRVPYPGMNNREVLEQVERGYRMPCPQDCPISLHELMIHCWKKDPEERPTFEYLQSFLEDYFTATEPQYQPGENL
Structure (SMILES),Ki (Abl),Ki (Src),Ki (Bcr-Abl),Percentage of cell death after IR (AnnexinV-PI) (GBMSC83 cells [1]),Colony formation (cell growth and proliferation) (T98G cells [4]),Mean neurosphere diameter (GBMSC83 cells [6]),Number of cells per sphere (GBMSC83 cells [6]),Colony formation (cell growth and proliferation) (U251 cells [9]),further results
"CSc1nc(Nc2cccc(Cl)c2)c2cnn(CC(Cl)c3ccccc3)c2n1 (stereo not drawn) [1a, reference compound]",600 nM,600 nM,600 nM,–,–,–,–,–,Activity in xenograft mouse model of osteosarcoma (osteosarcoma): active
ClC(Cn1ncc2c(Nc3ccccc3)ncnc21)c1ccc(Br)cc1 (stereo not drawn) [1b],–,–,–,–,–,–,–,–,Reduction of tumor volume (32D-T315I CML cells): more than 50%
ClC(Cn1ncc2c(Nc3cccc(Br)c3)nc(SCCN3CCOCC3)nc21)c1ccccc1 (stereo not drawn) [1c],–,–,120 nM,–,–,–,–,–,Activity in in vivo model of GBM (GBM): showed activity; Activity in in vivo model of NB (NB): showed activity
"CSc1nc(Nc2ccccc2Cl)c2cnn(CC(Cl)c3ccccc3)c2n1 (stereo not drawn) [2a, 1-(2-Chloro-2-phenylethyl)-N-(2-chlorophenyl)-6-(methylthio)-1H-pyrazolo[3,4-d]pyrimidin-4-amine]",450 ± 290 nM,423 ± 93 nM,–,significantly increased the percentage of cell death,impaired cell growth and proliferation in a dose-dependent manner,overall reduced diameter of the spheres,reduced average number of cells per sphere,impaired cell growth and proliferation in a dose-dependent manner,"Src phosphorylation on Tyr416 (pY416-Src) [2]: reduction in Src phosphorylation on Tyr416; Cell viability (MTS) (U251 cells [3]): significantly impaired cell viability; Sensitivity to IR (inhibition of cell viability, MTS) (U251 cells [5]): increases the sensitivity to IR; inhibition at 10 µM (Abl; 10 µM): 72%; Phosphorylation of Src on Tyr416 [7]: significant reduction in phosphorylation of Src on Tyr416; inhibition at 10 µM (Fyn; 10 µM): 90.7%; Ki (Fyn; mean of at least three experiments, 200 μM ATP): 419 ± 75 nM; inhibition at 10 µM (Src; 10 µM): 90%; Sensitivity to IR (inhibition of cell viability, MTS) (T98G cells [8]): increases the sensitivity to IR; Cell viability (MTS) (T98G cells [10]): significantly impaired cell viability"
"Cc1nc(Nc2ncc(C(=O)Nc3c(C)cccc3Cl)s2)cc(N2CCN(CCO)CC2)n1 [dasatinib, reference compound]",–,–,–,significantly increased the percentage of cell death,impaired cell growth and proliferation in a dose-dependent manner,overall reduced diameter of the spheres,reduced average number of cells per sphere,impaired cell growth and proliferation in a dose-dependent manner,–
